Values of other authors in patent publication US12533348B2, “Ferroportin-inhibitors for the use in the treatment of transfusion-dependent beta-thalassemia (TDT)” (Vifor (International) AG, priority 2019, dated 2026).

System: guinea pigs
Settings: intravenous administration, cited from earlier work

Structure (SMILES): O=C(NCc1ncccc1F)c1csc(CCNCc2nc3ccccc3[nH]2)n1 [VIT-2653]
- NTBI and Hb levels following exchange transfusion (guinea pigs): significantly improved
- total iron in kidneys following transfusion (guinea pigs): can be reduced
- occurrence of changes in plasma creatinine >0.3 mg/dL (indicator of early AKI) (transfused guinea pigs): significantly reduced
